Values quoted from earlier work, collected in patent publication US10188773B2, “Compositions and devices of poly-4-hydroxybutyrate” (Tepha, Inc., priority 2013, dated 2019).

Conditions: metabolism in the body; Nelson et al. 1981, Sendelbeck et al. 1985

**Q.** Which half-life does the source give for `O=C(O)CCCO` [4HB, 4-hydroxybutyric acid] here?
**A.** The half-life was “approximately 27 minutes”.
